Test results reported in PubChem BioAssay (NCI).
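Dose response: 5 concentrations. Exposure: 48 h. Format: 96-well plates. Endpoint: linear interpolation; highest concentration if not reached. At the GI50, growth is halved. TGI denotes the concentration required for complete inhibition of growth.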

Tests used:
Assay in all cases: growth of human tumour cells (NCI), 48 h
[1] = tested on: MDA-MB-231 breast
[2] = tested on: NCI-H226 lung
[3] = tested on: A498 renal
[4] = tested on: OVCAR-3 ovarian
[5] = tested on: MCF7 breast
[6] = tested on: BT-549 breast
[7] = tested on: NCI-H522 lung
[8] = tested on: KM12 colon
[9] = tested on: EKVX NSCLC
[10] = tested on: UACC-257 melanoma
[11] = tested on: K-562 leukemia
[12] = tested on: HL-60(TB) leukemia
[13] = tested on: HT29 colon
[14] = tested on: SK-MEL-2 melanoma
[15] = tested on: U251 CNS
[16] = tested on: SK-MEL-28 melanoma
[17] = tested on: NCI-H460 lung
[18] = tested on: SR leukemia
[19] = tested on: IGROV1 ovarian
[20] = tested on: HCC-2998 colon
[21] = tested on: OVCAR-5 ovarian
[22] = tested on: ACHN renal
[23] = tested on: SN12C renal
[24] = tested on: MDA-MB-435
[25] = tested on: HS 578T breast
[26] = tested on: T-47D breast
[27] = tested on: RPMI-8226 leukemia
[28] = tested on: NCI-H23 lung
[29] = tested on: CAKI-1 renal
[30] = tested on: SW-620 colon
[31] = tested on: OVCAR-4 ovarian
[32] = tested on: SF-295 CNS
[33] = tested on: DU-145 prostate
[34] = tested on: OVCAR-8 ovarian
[35] = tested on: SK-OV-3 ovarian
[36] = tested on: CCRF-CEM leukemia
[37] = tested on: COLO 205 colon
[38] = tested on: HOP-92 NSCLC
[39] = tested on: MOLT-4 leukemia
[40] = tested on: HOP-62 NSCLC
[41] = tested on: TK-10 renal
[42] = tested on: UACC-62 melanoma
[43] = tested on: M14 melanoma
[44] = tested on: A549 NSCLC
[45] = tested on: HCT-116 colon
[46] = tested on: SNB-75 CNS
[47] = tested on: SF-539 CNS
[48] = tested on: 786-0 renal
[49] = tested on: HCT-15 colon
[50] = tested on: SK-MEL-5 melanoma
[51] = tested on: NCI/ADR-RES ovarian
[52] = tested on: PC-3 prostate
[53] = tested on: RXF 393 renal
[54] = tested on: SF-268 CNS
[55] = tested on: SNB-19 CNS
[56] = tested on: MALME-3M melanoma
[57] = tested on: UO-31 renal

Question: Which results are given for `CN1CCc2c(sc3ncnc(N/N=C/c4ccc(Cl)c(Cl)c4)c23)C1`?
Answer: GI50 [1]: 12.4 µM; TGI [1]: 26.8 µM; GI50 [2]: 77.9 µM; TGI [2]: > 100 µM; GI50 [3]: 19.9 µM; TGI [3]: 35.6 µM; GI50 [4]: 15.7 µM; TGI [4]: 30.1 µM; GI50 [5]: 3.94 µM; TGI [5]: 18.6 µM; GI50 [6]: 14 µM; TGI [6]: 33 µM; GI50 [7]: 11.7 µM; TGI [7]: 28.3 µM; GI50 [8]: 17.9 µM; TGI [8]: 34 µM; GI50 [9]: 19.1 µM; TGI [9]: 39 µM; GI50 [10]: 14.8 µM; TGI [10]: 30.2 µM; GI50 [11]: 12.5 µM; TGI [11]: 57 µM; GI50 [12]: 2.04 µM; TGI [12]: 4.83 µM; GI50 [13]: 13.6 µM; TGI [13]: 29.3 µM; GI50 [14]: 38.4 µM; TGI [14]: > 100 µM; GI50 [15]: 17.1 µM; TGI [15]: 35.8 µM; GI50 [16]: 13.7 µM; TGI [16]: 29.8 µM; GI50 [17]: 16.4 µM; TGI [17]: 34.7 µM; GI50 [18]: 2.52 µM; TGI [18]: 8.04 µM; GI50 [19]: 15.6 µM; TGI [19]: 31.8 µM; GI50 [20]: 9.8 µM; TGI [20]: 25.7 µM; GI50 [21]: 15.3 µM; TGI [21]: 30.9 µM; GI50 [22]: 15.1 µM; TGI [22]: 31.5 µM; GI50 [23]: 11.5 µM; TGI [23]: 26.3 µM; GI50 [24]: 18.2 µM; TGI [24]: 34.4 µM; GI50 [25]: 22.1 µM; TGI [25]: 65.8 µM; GI50 [26]: 19.9 µM; TGI [26]: 49.9 µM; GI50 [27]: 17 µM; TGI [27]: 66.4 µM; GI50 [28]: 13.5 µM; TGI [28]: 31.2 µM; GI50 [29]: 15.2 µM; TGI [29]: 29.1 µM; GI50 [30]: 12.1 µM; TGI [30]: 29.8 µM; GI50 [31]: 15.5 µM; TGI [31]: 30.9 µM; GI50 [32]: 13 µM; TGI [32]: 27.9 µM; GI50 [33]: 14.5 µM; TGI [33]: 28.5 µM; GI50 [34]: 14.1 µM; TGI [34]: 39.7 µM; GI50 [35]: 17.1 µM; TGI [35]: 34.8 µM; GI50 [36]: 14 µM; TGI [36]: > 100 µM; GI50 [37]: 10.6 µM; TGI [37]: 27.5 µM; GI50 [38]: 7.63 µM; TGI [38]: 34.3 µM; GI50 [39]: 11.9 µM; TGI [39]: 43.6 µM; GI50 [40]: 10.2 µM; TGI [40]: 41.4 µM; GI50 [41]: 21.2 µM; TGI [41]: 36.1 µM; GI50 [42]: 14.9 µM; TGI [42]: 29.6 µM; GI50 [43]: 17.6 µM; TGI [43]: 43.8 µM; GI50 [44]: 11 µM; TGI [44]: 32.1 µM; GI50 [45]: 13.7 µM; TGI [45]: 44.4 µM; GI50 [46]: 14.6 µM; TGI [46]: 28.6 µM; GI50 [47]: 13.8 µM; TGI [47]: 29.8 µM; GI50 [48]: 12.4 µM; TGI [48]: 32.1 µM; GI50 [49]: 6.61 µM; TGI [49]: 22.2 µM; GI50 [50]: 13.7 µM; TGI [50]: 28.5 µM; GI50 [51]: 14.3 µM; TGI [51]: 34.1 µM; GI50 [52]: 18.1 µM; TGI [52]: 43.9 µM; GI50 [53]: 12.8 µM; TGI [53]: 28.1 µM; GI50 [54]: 16.5 µM; TGI [54]: 39.4 µM; GI50 [55]: 15.4 µM; TGI [55]: 35.6 µM; GI50 [56]: 14.1 µM; TGI [56]: 28.5 µM; GI50 [57]: 10.1 µM; TGI [57]: 22.7 µM
